In ChEMBL document CHEMBL3244013, “Central nervous system activity of a novel class of annelated 1,4-benzodiazepines, aminomethylene-2,4-dihydro-1H-imidazo[1,2-a][1,4]benzodiazepin-1-ones” (J Med Chem, 1977):

Experiments:
Mus musculus [1] = experiment: Acute toxicity in po dosed CD-1 mouse assessed as mortality after 24 hrs; type: organism-based; details: in vivo
Mus musculus [2] = experiment: Potentiation of chlorprothixene-induced sedative effect in po dosed CD-1 mouse assessed as loss of righting reflex; type: functional; details: CD-1, po
Mus musculus [3] = experiment: Anticonvulsant activity in po dosed CD-1 mouse assessed as protection against maximal electroshock-induced convulsion; type: functional; details: CD-1, po
Mus musculus [4] = experiment: Potentiation of hexobarbital-induced sedative effect in po dosed CD-1 mouse assessed as loss of righting reflex after 30 secs; type: functional; details: CD-1, po
Mus musculus [5] = experiment: Antianxiety activity in po dosed CD-1 mouse assessed as inhibition of foot shock-induced aggression after 30 mins relative to control; type: functional; details: CD-1, po, 0.5 h
Mus musculus [6] = experiment: Anticonvulsant activity in po dosed CD-1 mouse assessed as protection against strychnine-induced convulsion after 30 mins; type: functional; details: CD-1, po, 0.5 h
Mus musculus [7] = experiment: Induction of muscle relaxation in po dosed CD-1 mouse after 30 mins by rotary drum test; type: functional; details: CD-1, po, 0.5 h
Mus musculus [8] = experiment: Anticonvulsant activity in po dosed CD-1 mouse assessed as protection against pentylenetetrazole-induced convulsion; type: functional; details: CD-1, po

Compound	ED50 (Mus musculus [1])	ED50 (Mus musculus [2])	ED50 (Mus musculus [3])	ED50 (Mus musculus [4])	ED50 (Mus musculus [5])	ED50 (Mus musculus [6])	ED50 (Mus musculus [7])	ED50 (Mus musculus [8])
O=C1/C(=C/N2CCOCC2)N=C2CN=C(c3ccccc3)c3cc(Cl)ccc3N12	> 1000 mg/kg	20.3 mg/kg	7 mg/kg	> 50 mg/kg	2.4 mg/kg	> 50 mg/kg	29 mg/kg	2.3 mg/kg
CN1CCN(/C=C2\N=C3CN=C(c4ccccc4F)c4cc([N+](=O)[O-])ccc4N3C2=O)CC1	> 1000 mg/kg	1.6 mg/kg	1.2 mg/kg	0.8 mg/kg	0.26 mg/kg	0.46 mg/kg	1.5 mg/kg	0.13 mg/kg
C/C(=C1/N=C2CN=C(c3ccccc3)c3cc(Cl)ccc3N2C1=O)N1CCNCC1	> 1000 mg/kg	> 50 mg/kg	14 mg/kg	5.2 mg/kg	> 20 mg/kg	> 50 mg/kg	> 50 mg/kg	4 mg/kg
CC(C)(C)N/C=C1\N=C2CN=C(c3ccccc3)c3cc(Cl)ccc3N2C1=O	> 1000 mg/kg	14 mg/kg	19 mg/kg	5 mg/kg	1.1 mg/kg	> 50 mg/kg	14.5 mg/kg	3.25 mg/kg
CCN1CCN(/C=C2\N=C3CN=C(c4ccccc4)c4cc(Cl)ccc4N3C2=O)CC1	> 1000 mg/kg	5 mg/kg	2.2 mg/kg	1.1 mg/kg	0.94 mg/kg	5.5 mg/kg	1.6 mg/kg	0.48 mg/kg
CN1CCN(/C=C2\N=C3CN=C(c4ccccc4Cl)c4cc(Cl)ccc4N3C2=O)CC1	> 1000 mg/kg	1.6 mg/kg	2.1 mg/kg	0.074 mg/kg	0.2 mg/kg	1.8 mg/kg	0.78 mg/kg	0.165 mg/kg
O=C1/C(=C/N2CCN(CC3CC3)CC2)N=C2CN=C(c3ccccc3)c3cc(Cl)ccc3N12	> 1000 mg/kg	25 mg/kg	10.5 mg/kg	30 mg/kg	4.65 mg/kg	30 mg/kg	6.2 mg/kg	3.5 mg/kg
CC(C)N1CCN(/C=C2\N=C3CN=C(c4ccccc4)c4cc(Cl)ccc4N3C2=O)CC1	> 1000 mg/kg	6.4 mg/kg	7 mg/kg	6.6 mg/kg	2.1 mg/kg	5.8 mg/kg	12 mg/kg	1.25 mg/kg
CCN1CCN(/C=C2\N=C3CN=C(c4ccccc4Cl)c4cc([N+](=O)[O-])ccc4N3C2=O)CC1	> 1000 mg/kg	0.99 mg/kg	2.8 mg/kg	0.8 mg/kg	0.34 mg/kg	2.8 mg/kg	0.46 mg/kg	0.15 mg/kg
O=C1/C(=C/N2CCNCC2)N=C2CN=C(c3ccccc3)c3cc(Cl)ccc3N12	> 1000 mg/kg	23 mg/kg	> 50 mg/kg	7.5 mg/kg	> 20 mg/kg	> 50 mg/kg	> 50 mg/kg	1.95 mg/kg
CN1CCN(/C=C2\N=C3CN=C(c4ccccc4)c4cc([N+](=O)[O-])ccc4N3C2=O)CC1	> 1000 mg/kg	4.5 mg/kg	4.2 mg/kg	3.6 mg/kg	2.2 mg/kg	6.6 mg/kg	8.6 mg/kg	0.92 mg/kg
CCCN/C=C1\N=C2CN=C(c3ccccc3Cl)c3cc(Cl)ccc3N2C1=O	> 1000 mg/kg	5.6 mg/kg	> 30 mg/kg	0.06 mg/kg	2.4 mg/kg	> 25 mg/kg	8 mg/kg	1 mg/kg
